Source: US20250230138A1, “COMPOUNDS HAVING A T-STRUCTURE FORMED BY AT LEAST FOUR CYCLES FOR USE IN THE TREATMENT OF CANCER AND OTHER INDICATIONS” (TheRas, Inc., priority 2022, published 2025)
Read-outs that look alike come from different tables or passages of the source.

Key:
[1] = target: Cys242 in human PIK3CA (157-299) (Homo sapiens (Human), UniProt P42336); experiment: Covalent modification assay using MALDI-TOF MS; type: biochemical; settings: 4 h reaction time point
How it was run: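 Covalent adduct formation was read by linear-mode MALDI-TOF with sinapinic acid matrix, reported as modified-protein peak height divided by total protein peak heights. Reactions held PIK3CA (157-299) at 1 or 3.33 μM in HEPES/NaCl/MgCl2 buffer, pH 7.3, sampled after 15 min to 4 h at room temperature.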

pAKT in BT474 cells = experiment: Cell-based pAKT HTRF assay in BT474 cells; settings: BT474 cells, 4 hr incubation, read-out: pAKT inhibition IC50 in BT474 cells
How it was run: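 pAKT was measured by HTRF after a 4 hr compound exposure in BT474 cells (DMEM, 10% FBS, 0.25% DMSO), using 9 concentrations from 3 μM in 3-fold steps. Cell lysates were incubated with the Eu cryptate/d2 antibody pair at room temperature for 4 to 24 h. The plate was then read at 320 nm excitation and 615 nm emission.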

[2] = 3.33 μM protein target, 1:7.5 protein to compound ratio (compounds 1-852)
[3] = 1 μM protein target, 1:5 protein to compound ratio (compounds 853-1279)

Chain of Cys242 in human PIK3CA (157-299) (P42336 157-299): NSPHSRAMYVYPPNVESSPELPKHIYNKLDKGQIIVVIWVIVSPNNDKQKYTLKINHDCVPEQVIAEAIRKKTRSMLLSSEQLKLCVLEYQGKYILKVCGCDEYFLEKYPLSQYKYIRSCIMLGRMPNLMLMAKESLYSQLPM

## C=CC(=O)N1CCc2ncc(-c3nc(-c4ccc5c(c4)CCNC5)c4ccsc4c3-c3ccc(F)cc3OCCOC)cc2C1 [Compound 62, 1-[3-[7-[4-fluoro-2-(2-methoxyethoxy)phenyl]-4-(1,2,3,4-tetrahydroisoquinolin-6-yl)thieno[3,2-c]pyridin-6-yl]-7,8-dihydro-5H-1,6-naphthyridin-6-yl]prop-2-en-1-one]
[1]; [2]
  % of modification: A (percent of modification of PIK3CA protein ≥75%)
pAKT in BT474 cells; Homo sapiens, BT-474, Compounds 10-999
  IC50: < 100 nM

## C=CC(=O)N1CCc2ncc(-c3nc(-c4ccc5c(c4)CN(C)CC5(F)F)c4ccsc4c3-c3c(F)cc(F)cc3OCCOC)cc2C1 [Compound 1274]
[1]; [3]
  % of modification: A (percent of modification of PIK3CA protein ≥75%)
pAKT in BT474 cells; Compounds 1000-1279
  IC50: < 100 nM

## C=CC(=O)N1CC(n2cc(-c3nc(-c4ccc5c(c4)CCNC5)c4ccsc4c3-c3ccc(F)cc3C(F)F)cn2)C1 [Compound 120]
[1]; [2]
  % of modification: A (percent of modification of PIK3CA protein ≥75%)
pAKT in BT474 cells; Compounds 10-999
  IC50: 100 to 1000 nM

## C=CC(=O)N1CCn2nc(-c3nc(-c4ccc5c(c4)CNC(=O)C5(C)C)c4ccsc4c3-c3c(F)cc(F)cc3OCCOC)cc2C1C (centres unmarked) [Compound 1079]
[1]; [3]
  % of modification: A (percent of modification of PIK3CA protein ≥75%)
pAKT in BT474 cells; Compounds 1000-1279
  IC50: < 100 nM

## C=CC(=O)N1CCn2nc(-c3nc(-c4ccc5c(c4)C(O)CC5)c4ccsc4c3-c3ccc(F)cc3OCCOC)nc2C1 (centres unmarked) [Compound 192]
[1]; [2]
  % of modification: A (percent of modification of PIK3CA protein ≥75%)
pAKT in BT474 cells; Compounds 10-999
  IC50: < 100 nM

## C=CC(=O)N1CCc2nc(-c3nc(-c4ccc5c(c4)CNC5)c4ccsc4c3-c3ccc(F)cc3OCCOC)sc2C1 [Compound 153]
[1]; [2]
  % of modification: A (percent of modification of PIK3CA protein ≥75%)
pAKT in BT474 cells; Compounds 10-999
  IC50: < 100 nM

## C=CC(=O)N1CCn2nc(-c3nc(-c4ccnc(N)c4)c4ccsc4c3-c3ccc(F)cc3OCCOC)nc2C1 [Compound 186]
[1]; [2]
  % of modification: A (percent of modification of PIK3CA protein ≥75%)
pAKT in BT474 cells; Compounds 10-999
  IC50: < 100 nM

## C=CC(=O)N1CCc2ncc(-c3nc(-c4cnn(CC(C)(C)O)c4)c4ccsc4c3-c3c(F)cc(F)cc3OC(C)C)cc2C1 [Compound 345]
[1]; [2]
  % of modification: A (percent of modification of PIK3CA protein ≥75%)
pAKT in BT474 cells; Compounds 10-999
  IC50: < 100 nM

## C=CC(=O)N1CCn2nc(-c3nc(-c4ccc5cn(C)nc5c4)c4ccsc4c3-c3c(F)cc(F)cc3OCCOC)cc2[C@H]1C [Compound 747]
[1]; [2]
  % of modification: A (percent of modification of PIK3CA protein ≥75%)
pAKT in BT474 cells; Compounds 10-999
  IC50: < 100 nM

## C=CC(=O)N1CCc2nc(-c3nc(-c4ccc5c(c4)CC(N)C5)c4ccsc4c3-c3ccc(F)cc3OCCOC)sc2C1 (centres unmarked) [Compound 156]
[1]; [2]
  % of modification: A (percent of modification of PIK3CA protein ≥75%)
pAKT in BT474 cells; Compounds 10-999
  IC50: < 100 nM

## C=CC(=O)N1CCn2nc(-c3nc(-c4ccc(=O)n(C5CN(C)C5)c4)c4ccsc4c3-c3c(F)cc(F)cc3OCCOC)cc2C1C (centres unmarked) [Compound 1031]
[1]; [3]
  % of modification: B (50%<percent of modification <75%)
pAKT in BT474 cells; Compounds 1000-1279
  IC50: 100 to 1000 nM

## COc1cc(F)ccc1-c1c(-c2cnn(C3CN(C(=O)/C=C/CN(C)C)C3)c2)nc(-c2cnn(CC(F)F)c2)c2ccsc12 [Compound 137]
[1]; [2]
  % of modification: C (25%≤percent of modification <50%)
pAKT in BT474 cells; Compounds 10-999
  IC50: 1000 to 3000 nM

## C=CC(=O)N1CCn2nc(-c3nc(-c4cnc5c(c4)CNC(=O)C5)c4ccsc4c3-c3c(F)cc(F)cc3OCCOC)cc2[C@H]1C [Compound 750]
[1]; [2]
  % of modification: A (percent of modification of PIK3CA protein ≥75%)
pAKT in BT474 cells; Compounds 10-999
  IC50: < 100 nM

## C=CC(=O)N1CCc2nc(-c3nc(-c4cnc(N)nc4)c4ccsc4c3-c3ccc(F)cc3OCCOC)sc2C1 [Compound 133]
[1]; [2]
  % of modification: A (percent of modification of PIK3CA protein ≥75%)
pAKT in BT474 cells; Compounds 10-999
  IC50: < 100 nM

## C=CC(=O)N1CCc2ccc(-c3nc(-c4cnc5c(c4)CN(C)CC5)c4ccsc4c3-c3c(F)cc(F)cc3OCCO)cc2C1 [Compound 498]
[1]; [2]
  % of modification: A (percent of modification of PIK3CA protein ≥75%)
pAKT in BT474 cells; Compounds 10-999
  IC50: < 100 nM

## C=CC(=O)N1CCc2ncc(-c3nc(-c4cncc(F)c4)c4ccsc4c3-c3c(F)cc(F)cc3OC(C)C)cc2C1 [Compound 406]
[1]; [2]
  % of modification: A (percent of modification of PIK3CA protein ≥75%)
pAKT in BT474 cells; Compounds 10-999
  IC50: < 100 nM

## C=CC(=O)N1CCn2nc(-c3nc(-c4ccc(C5(C(=O)NC)CC5)cc4)c4ccsc4c3-c3c(F)cc(F)cc3OCCOC)cc2[C@H]1C [Compound 1134]
[1]; [3]
  % of modification: A (percent of modification of PIK3CA protein ≥75%)
pAKT in BT474 cells; Compounds 1000-1279
  IC50: < 100 nM

## C=CC(=O)N1CC(n2cc(-c3nc(N4CCN5CCCC5C4)c4ccsc4c3-c3ccc(F)cc3OCCOC)cn2)C1 (centres unmarked) [Compound 123]
[1]; [2]
  % of modification: A (percent of modification of PIK3CA protein ≥75%)
pAKT in BT474 cells; Compounds 10-999
  IC50: 100 to 1000 nM

## C=CC(=O)N1CCn2nc(-c3nc(-c4cccc(OCCN(C)C)c4)c4ccsc4c3-c3c(F)cc(F)cc3OCCO)cc2C1C (centres unmarked) [Compound 1194]
[1]; [3]
  % of modification: A (percent of modification of PIK3CA protein ≥75%)
pAKT in BT474 cells; Compounds 1000-1279
  IC50: < 100 nM

## C=CC(=O)N1CC(n2nc(C)c(-c3nc(-c4ccc5c(c4)CCNC5)c4ccsc4c3-c3ccc(F)cc3OC)c2C)C1 [Compound 165]
[1]; [2]
  % of modification: A (percent of modification of PIK3CA protein ≥75%)
pAKT in BT474 cells; Compounds 10-999
  IC50: < 100 nM

## C=CC(=O)N1Cc2cc(-c3nc(-c4cnc5c(c4)CNC(=O)C5)c4ccsc4c3-c3c(F)cc(F)cc3OCCOC)nn2[C@@H](C)C1 [Compound 688]
[1]; [2]
  % of modification: A (percent of modification of PIK3CA protein ≥75%)
pAKT in BT474 cells; Compounds 10-999
  IC50: < 100 nM

## C=CC(=O)N1Cc2cc(-c3nc(-c4ccc5ncn(C)c5c4)c4ccsc4c3-c3c(F)cc(F)cc3OCC(C)O)nn2CC1C (centres unmarked) [Compound 765]
[1]; [2]
  % of modification: A (percent of modification of PIK3CA protein ≥75%)
pAKT in BT474 cells; Compounds 10-999
  IC50: < 100 nM

## C=CC(=O)N1CCn2nc(-c3nc(-c4ccc(C(=O)NC)cc4)c4ccsc4c3-c3c(F)cc(F)cc3OCCOC)cc2C1C (centres unmarked) [Compound 1103]
[1]; [3]
  % of modification: A (percent of modification of PIK3CA protein ≥75%)
pAKT in BT474 cells; Compounds 1000-1279
  IC50: < 100 nM

## C=CC(=O)N1Cc2cc(-c3nc(-c4ccc5c(=O)n(C)ncc5c4)c4ccsc4c3-c3c(F)cc(F)cc3OCCOC)nn2C[C@H]1C [Compound 849]
[1]; [2]
  % of modification: A (percent of modification of PIK3CA protein ≥75%)
pAKT in BT474 cells; Compounds 10-999
  IC50: < 100 nM

## C=CC(=O)N1Cc2cc(-c3nc(-c4cnc5c(c4)CNC5=O)c4ccsc4c3-c3c(F)cc(F)cc3OCCOC)nn2CC1C (centres unmarked) [Compound 554]
[1]; [2]
  % of modification: A (percent of modification of PIK3CA protein ≥75%)
pAKT in BT474 cells; Compounds 10-999
  IC50: < 100 nM

## C=CC(=O)N1CCn2nc(-c3nc(-c4cn(C)cn4)c4ccsc4c3-c3c(F)cc(F)cc3OCC(C)O)cc2C1C (centres unmarked) [Compound 833]
[1]; [2]
  % of modification: A (percent of modification of PIK3CA protein ≥75%)
pAKT in BT474 cells; Compounds 10-999
  IC50: < 100 nM

## C=CC(=O)N1CCn2nc(-c3nc(-c4ccc5c(c4)CN(C)C(=O)C5)c4ccsc4c3-c3c(F)cc(F)cc3OCCO)cc2[C@H]1C [Compound 973]
[1]; [3]
  % of modification: A (percent of modification of PIK3CA protein ≥75%)
pAKT in BT474 cells; Compounds 10-999
  IC50: < 100 nM

## C=CC(=O)N1Cc2cc(-c3nc(-c4ccc(N(C)C)nc4)c4ccsc4c3-c3c(F)cc(F)cc3OCCOC)nn2CC1C (centres unmarked) [Compound 855]
[1]; [3]
  % of modification: A (percent of modification of PIK3CA protein ≥75%)
pAKT in BT474 cells; Compounds 10-999
  IC50: < 100 nM

## C=CC(=O)N1CCc2nc(-c3nc(-c4cnc5c(c4)CNCC5)c4ccsc4c3-c3ccc(F)cc3OCCOC)sc2C1 [Compound 227]
[1]; [2]
  % of modification: A (percent of modification of PIK3CA protein ≥75%)
pAKT in BT474 cells; Compounds 10-999
  IC50: < 100 nM

## C=CC(=O)N1CC(n2cc(-c3nc(-c4ccc5c(c4)CCNC5)c4ccsc4c3-c3ccc(F)cc3OCCOC)cc(C)c2=O)C1 [Compound 178]
[1]; [2]
  % of modification: A (percent of modification of PIK3CA protein ≥75%)
pAKT in BT474 cells; Compounds 10-999
  IC50: < 100 nM

## C=CC(=O)N1CCc2nc(-c3nc(-c4ccc5c(c4)CCN(C)C5)c4ccsc4c3-c3ccc(F)cc3OCCOC)sc2C1 [Compound 107]
[1]; [2]
  % of modification: A (percent of modification of PIK3CA protein ≥75%)
pAKT in BT474 cells; Compounds 10-999
  IC50: < 100 nM

## C=CC(=O)N1Cc2cc(-c3nc(-n4cnc(C)c4)c4ccsc4c3-c3c(F)cc(F)cc3OCCOC)nn2C[C@H]1C [Compound 824]
[1]; [2]
  % of modification: A (percent of modification of PIK3CA protein ≥75%)
pAKT in BT474 cells; Compounds 10-999
  IC50: < 100 nM

## C=CC(=O)N1CCc2nc(-c3nc(-c4ccc5nn(C)cc5c4)c4ccsc4c3-c3c(F)cc(F)cc3OCCOC)sc2C1 [Compound 947]
[1]; [3]
  % of modification: A (percent of modification of PIK3CA protein ≥75%)
pAKT in BT474 cells; Compounds 10-999
  IC50: < 100 nM

## C=CC(=O)N1CCn2nc(-c3nc(-c4cc5cnn(C)c5cc4F)c4ccsc4c3-c3c(F)cc(F)cc3OCCOC)cc2[C@H]1C [Compound 1164]
[1]; [3]
  % of modification: A (percent of modification of PIK3CA protein ≥75%)
pAKT in BT474 cells; Compounds 1000-1279
  IC50: < 100 nM
